Test results taken from PubChem BioAssay AID1918942 (Molecular Pharmacology Branch, DTP, NCI, 2023).

Tested on: 743489-274-T-PDC complex spheroid viability
Assay: Anticancer human tumor 743489-274-T-PDC patient-derived renal cell carcinoma cell line growth inhibition
Conditions: for IC50: curve of first compound; for viability, T/C: stronger effect = lower value
Method in brief: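 Multicellular complex spheroids of tumor cells with human endothelial cells (HUVEC) and mesenchymal stem cells; the LSD1 inhibitor iadademstat was combined with standard-of-care or investigational agents. Top concentration at or near clinical Cmax, half-log dilutions; final DMSO ≤0.25%.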

[1] = second compound 0.1 µM, first compound 0.0316 µM
[2] = second compound 0.1 µM, first compound 0.1 µM
[3] = second compound 0.1 µM, first compound 0.316 µM
[4] = second compound 0.1 µM, first compound 1 µM
[5] = second compound 0.1 µM, first compound 3.16 µM
[6] = second compound 0.1 µM, first compound 10 µM
[7] = second compound 0.316 µM, first compound 0.0316 µM
[8] = second compound 0.316 µM, first compound 0.1 µM
[9] = second compound 0.316 µM, first compound 0.316 µM
[10] = second compound 0.316 µM, first compound 1 µM
[11] = second compound 0.316 µM, first compound 3.16 µM
[12] = second compound 0.316 µM, first compound 10 µM
[13] = second compound 1 µM, first compound 0.0316 µM
[14] = second compound 1 µM, first compound 0.1 µM
[15] = second compound 1 µM, first compound 0.316 µM
[16] = second compound 1 µM, first compound 1 µM
[17] = second compound 1 µM, first compound 3.16 µM
[18] = second compound 1 µM, first compound 10 µM
[19] = second compound 3.16 µM, first compound 0.0316 µM
[20] = second compound 3.16 µM, first compound 0.1 µM
[21] = second compound 3.16 µM, first compound 0.316 µM
[22] = second compound 3.16 µM, first compound 1 µM
[23] = second compound 3.16 µM, first compound 3.16 µM
[24] = second compound 3.16 µM, first compound 10 µM
[25] = second compound 10 µM, first compound 0.0316 µM
[26] = second compound 10 µM, first compound 0.1 µM
[27] = second compound 10 µM, first compound 0.316 µM
[28] = second compound 10 µM, first compound 1 µM
[29] = second compound 10 µM, first compound 3.16 µM
[30] = second compound 10 µM, first compound 10 µM
[31] = second compound 0.1 µM, first compound 0.00949 µM
[32] = second compound 0.1 µM, first compound 0.03 µM
[33] = second compound 0.1 µM, first compound 0.0949 µM
[34] = second compound 0.1 µM, first compound 0.3 µM
[35] = second compound 0.316 µM, first compound 0.00949 µM
[36] = second compound 0.316 µM, first compound 0.03 µM
[37] = second compound 0.316 µM, first compound 0.0949 µM
[38] = second compound 0.316 µM, first compound 0.3 µM
[39] = second compound 1 µM, first compound 0.00949 µM
[40] = second compound 1 µM, first compound 0.03 µM
[41] = second compound 1 µM, first compound 0.0949 µM
[42] = second compound 1 µM, first compound 0.3 µM
[43] = second compound 3.16 µM, first compound 0.00949 µM
[44] = second compound 3.16 µM, first compound 0.03 µM
[45] = second compound 3.16 µM, first compound 0.0949 µM
[46] = second compound 3.16 µM, first compound 0.3 µM
[47] = second compound 10 µM, first compound 0.00949 µM
[48] = second compound 10 µM, first compound 0.03 µM
[49] = second compound 10 µM, first compound 0.0949 µM
[50] = second compound 10 µM, first compound 0.3 µM
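Note: spheroids exposed to compounds for 7 days before readout.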
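Throughout, for viability, T/C: 100% = DMSO vehicle control wells.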

## CC1(C)CCC(CN2CCN(c3ccc(C(=O)NS(=O)(=O)c4ccc(NCC5CCOCC5)c([N+](=O)[O-])c4)c(Oc4cnc5[nH]ccc5c4)c3)CC2)=C(c2ccc(Cl)cc2)C1 + NC1CCC(NC2CC2c2ccccc2)CC1
Second compound 0.1 µM
  IC50: > 10 µM
Second compound 0.316 µM
  IC50: > 10 µM
Second compound 1 µM
  IC50: > 10 µM
Second compound 3.16 µM
  IC50: > 10 µM
Second compound 10 µM
  IC50: > 10 µM
[1]
  viability, T/C: 105%
[2]
  viability, T/C: 124%
[3]
  viability, T/C: 114%
[4]
  viability, T/C: 105%
[5]
  viability, T/C: 125%
[6]
  viability, T/C: 124%
[7]
  viability, T/C: 125%
[8]
  viability, T/C: 122%
[9]
  viability, T/C: 116%
[10]
  viability, T/C: 109%
[11]
  viability, T/C: 117%
[12]
  viability, T/C: 123%
[13]
  viability, T/C: 125%
[14]
  viability, T/C: 114%
[15]
  viability, T/C: 119%
[16]
  viability, T/C: 126%
[17]
  viability, T/C: 134%
[18]
  viability, T/C: 136%
[19]
  viability, T/C: 114%
[20]
  viability, T/C: 130%
[21]
  viability, T/C: 134%
[22]
  viability, T/C: 114%
[23]
  viability, T/C: 117%
[24]
  viability, T/C: 111%
[25]
  viability, T/C: 128%
[26]
  viability, T/C: 117%
[27]
  viability, T/C: 118%
[28]
  viability, T/C: 122%
[29]
  viability, T/C: 129%
[30]
  viability, T/C: 102%

## CC1COCCN1c1cc(C2(S(C)(=N)=O)CC2)nc(-c2ccnc3[nH]ccc23)n1 (stereo not given) + NC1CCC(NC2CC2c2ccccc2)CC1
Second compound 0.1 µM
  IC50: > 10 µM
Second compound 0.316 µM
  IC50: > 10 µM
Second compound 1 µM
  IC50: > 10 µM
Second compound 3.16 µM
  IC50: > 10 µM
Second compound 10 µM
  IC50: > 10 µM
[1]
  viability, T/C: 108%
[2]
  viability, T/C: 106%
[3]
  viability, T/C: 108%
[4]
  viability, T/C: 116%
[5]
  viability, T/C: 93.7%
[6]
  viability, T/C: 92.1%
[7]
  viability, T/C: 99.6%
[8]
  viability, T/C: 111%
[9]
  viability, T/C: 107%
[10]
  viability, T/C: 108%
[11]
  viability, T/C: 112%
[12]
  viability, T/C: 98.6%
[13]
  viability, T/C: 103%
[14]
  viability, T/C: 123%
[15]
  viability, T/C: 115%
[16]
  viability, T/C: 113%
[17]
  viability, T/C: 99.8%
[18]
  viability, T/C: 94.9%
[19]
  viability, T/C: 112%
[20]
  viability, T/C: 103%
[21]
  viability, T/C: 107%
[22]
  viability, T/C: 106%
[23]
  viability, T/C: 98.5%
[24]
  viability, T/C: 92.7%
[25]
  viability, T/C: 112%
[26]
  viability, T/C: 103%
[27]
  viability, T/C: 111%
[28]
  viability, T/C: 121%
[29]
  viability, T/C: 106%
[30]
  viability, T/C: 94.6%

## CCN(c1cc(-c2ccc(CN3CCOCC3)cc2)cc(C(=O)NCc2c(C)cc(C)[nH]c2=O)c1C)C1CCOCC1 + NC1CCC(NC2CC2c2ccccc2)CC1
Second compound 0.1 µM
  IC50: > 3 µM
Second compound 0.316 µM
  IC50: > 3 µM
Second compound 1 µM
  IC50: > 3 µM
Second compound 3.16 µM
  IC50: > 3 µM
Second compound 10 µM
  IC50: > 3 µM
[31]
  viability, T/C: 104%
[32]
  viability, T/C: 103%
[33]
  viability, T/C: 101%
[34]
  viability, T/C: 102%
Second compound 0.1 µM, first compound 0.949 µM
  viability, T/C: 107%
Second compound 0.1 µM, first compound 3 µM
  viability, T/C: 104%
[35]
  viability, T/C: 91.1%
[36]
  viability, T/C: 98.5%
[37]
  viability, T/C: 97.4%
[38]
  viability, T/C: 96.2%
Second compound 0.316 µM, first compound 0.949 µM
  viability, T/C: 104%
Second compound 0.316 µM, first compound 3 µM
  viability, T/C: 102%
[39]
  viability, T/C: 99.8%
[40]
  viability, T/C: 106%
[41]
  viability, T/C: 101%
[42]
  viability, T/C: 105%
Second compound 1 µM, first compound 0.949 µM
  viability, T/C: 104%
Second compound 1 µM, first compound 3 µM
  viability, T/C: 106%
[43]
  viability, T/C: 107%
[44]
  viability, T/C: 106%
[45]
  viability, T/C: 110%
[46]
  viability, T/C: 105%
Second compound 3.16 µM, first compound 0.949 µM
  viability, T/C: 113%
Second compound 3.16 µM, first compound 3 µM
  viability, T/C: 111%
[47]
  viability, T/C: 109%
[48]
  viability, T/C: 107%
[49]
  viability, T/C: 108%
[50]
  viability, T/C: 95.7%
Second compound 10 µM, first compound 0.949 µM
  viability, T/C: 100%
Second compound 10 µM, first compound 3 µM
  viability, T/C: 104%

## Nc1ncn(C2CC(O)C(CO)S2)c(=O)n1 (stereo not given) + NC1CCC(NC2CC2c2ccccc2)CC1
Second compound 0.1 µM
  IC50: > 0.3 µM
Second compound 0.316 µM
  IC50: > 0.3 µM
Second compound 1 µM
  IC50: > 0.3 µM
Second compound 3.16 µM
  IC50: > 0.3 µM
Second compound 10 µM
  IC50: > 0.3 µM
Second compound 0.1 µM, first compound 0.000949 µM
  viability, T/C: 116%
Second compound 0.1 µM, first compound 0.003 µM
  viability, T/C: 95.5%
[31]
  viability, T/C: 104%
[32]
  viability, T/C: 91.1%
[33]
  viability, T/C: 89.6%
[34]
  viability, T/C: 80.5%
Second compound 0.316 µM, first compound 0.000949 µM
  viability, T/C: 106%
Second compound 0.316 µM, first compound 0.003 µM
  viability, T/C: 105%
[35]
  viability, T/C: 120%
[36]
  viability, T/C: 110%
[37]
  viability, T/C: 95.6%
[38]
  viability, T/C: 103%
Second compound 1 µM, first compound 0.000949 µM
  viability, T/C: 118%
Second compound 1 µM, first compound 0.003 µM
  viability, T/C: 112%
[39]
  viability, T/C: 107%
[40]
  viability, T/C: 97.6%
[41]
  viability, T/C: 87.6%
[42]
  viability, T/C: 87%
Second compound 3.16 µM, first compound 0.000949 µM
  viability, T/C: 112%
Second compound 3.16 µM, first compound 0.003 µM
  viability, T/C: 116%
[43]
  viability, T/C: 96.8%
[44]
  viability, T/C: 108%
[45]
  viability, T/C: 88.4%
[46]
  viability, T/C: 102%
Second compound 10 µM, first compound 0.000949 µM
  viability, T/C: 113%
Second compound 10 µM, first compound 0.003 µM
  viability, T/C: 125%
[47]
  viability, T/C: 101%
[48]
  viability, T/C: 104%
[49]
  viability, T/C: 93.4%
[50]
  viability, T/C: 98%

## O=C(C=Cn1cnc(-c2cc(C(F)(F)F)cc(C(F)(F)F)c2)n1)NNc1cnccn1 + NC1CCC(NC2CC2c2ccccc2)CC1
Second compound 0.1 µM
  IC50: > 1 µM
Second compound 0.316 µM
  IC50: > 1 µM
Second compound 1 µM
  IC50: > 1 µM
Second compound 3.16 µM
  IC50: > 1 µM
Second compound 10 µM
  IC50: > 1 µM
Second compound 0.1 µM, first compound 0.00316 µM
  viability, T/C: 102%
Second compound 0.1 µM, first compound 0.01 µM
  viability, T/C: 112%
[1]
  viability, T/C: 113%
[2]
  viability, T/C: 114%
[3]
  viability, T/C: 102%
[4]
  viability, T/C: 96%
Second compound 0.316 µM, first compound 0.00316 µM
  viability, T/C: 95%
Second compound 0.316 µM, first compound 0.01 µM
  viability, T/C: 107%
[7]
  viability, T/C: 131%
[8]
  viability, T/C: 106%
[9]
  viability, T/C: 97.8%
[10]
  viability, T/C: 81.3%
Second compound 1 µM, first compound 0.00316 µM
  viability, T/C: 103%
Second compound 1 µM, first compound 0.01 µM
  viability, T/C: 119%
[13]
  viability, T/C: 130%
[14]
  viability, T/C: 113%
[15]
  viability, T/C: 91.6%
[16]
  viability, T/C: 81.8%
Second compound 3.16 µM, first compound 0.00316 µM
  viability, T/C: 112%
Second compound 3.16 µM, first compound 0.01 µM
  viability, T/C: 121%
[19]
  viability, T/C: 140%
[20]
  viability, T/C: 116%
[21]
  viability, T/C: 91.8%
[22]
  viability, T/C: 82.5%
Second compound 10 µM, first compound 0.00316 µM
  viability, T/C: 120%
Second compound 10 µM, first compound 0.01 µM
  viability, T/C: 124%
[25]
  viability, T/C: 126%
[26]
  viability, T/C: 113%
[27]
  viability, T/C: 102%
[28]
  viability, T/C: 95.9%
